{
  "source": "ChEMBL document CHEMBL1146459",
  "about": "“Production of biologically active taxoids by a callus culture of Taxus cuspidata” (2004)",
  "key": {"OVCAR-5": {"tested_on": "OVCAR-5", "assay": "Growth inhibition of human OVCAR5 cells after 48 hrs by SRB assay", "assay_type": "functional", "settings": "OVCAR-5, 48 h"}, "ACHN": {"tested_on": "ACHN", "assay": "Growth inhibition of human ACHN cells after 48 hrs by SRB assay", "assay_type": "functional"}, "[1]": {"assay": "Reversal of multidrug resistance in human 2780AD cells assessed as [3H]vincristine accumulation at 1 ug/mL after 2 hrs relative to verapamil", "assay_type": "functional, A2780 ADR"}, "DMS-273": {"tested_on": "DMS-273", "assay": "Growth inhibition of human DMS273 cells after 48 hrs by SRB assay", "assay_type": "functional", "settings": "DMS-273, 48 h"}, "St-4": {"tested_on": "St-4", "assay": "Growth inhibition of human St-4 cells after 48 hrs by SRB assay", "assay_type": "functional", "settings": "St-4, 48 h"}, "NCI-H23": {"tested_on": "NCI-H23", "assay": "Growth inhibition of human NCI-H23 cells after 48 hrs by SRB assay", "assay_type": "functional", "settings": "NCI-H23, 48 h"}, "MKN-45": {"tested_on": "MKN-45", "assay": "Growth inhibition of human MKN45 cells after 48 hrs by SRB assay", "assay_type": "functional", "settings": "MKN-45, 48 h"}, "SF-268": {"tested_on": "SF-268", "assay": "Growth inhibition of human SF268 cells after 48 hrs by SRB assay", "assay_type": "functional", "settings": "SF-268, 48 h"}, "[2]": {"assay": "Growth inhibition of human HBC5 cells after 48 hrs by SRB assay", "assay_type": "functional", "settings": "HBC5, 48 h"}, "[3]": {"assay": "Growth inhibition of human BSY1 cells after 48 hrs by SRB assay", "assay_type": "functional", "settings": "BSY-1, 48 h"}, "KM12": {"tested_on": "KM12", "assay": "Growth inhibition of human KM12 cells after 48 hrs by SRB assay", "assay_type": "functional", "settings": "KM12, 48 h"}, "[4]": {"settings": "read-out: LC50 (the source's name)"}, "[5]": {"settings": "read-out: pLC50 (the source's name) (converted)"}},
  "data": [
    {"compound": "C=C1[C@@H](OC(C)=O)CC[C@@]2(C)C[C@H](OC(C)=O)C3=C(C)C[C@H](OC(=O)C(C)CC)[C@@H]([C@@H](OC(C)=O)[C@H]12)C3(C)C", "note": "(stereo partly drawn)", "values": [
      {"measurement": "GI50", "setting": "OVCAR-5; read-out: GI50", "result": 48, "unit": "µM"},
      {"measurement": "CC50", "setting": "OVCAR-5; [4]", "result": "> 100", "unit": "µM"},
      {"measurement": "TGI", "setting": "OVCAR-5; read-out: TGI", "result": "> 100", "unit": "µM"},
      {"measurement": "GI50", "setting": "OVCAR-5; read-out: pGI50 (converted)", "result": 47.9, "unit": "µM"},
      {"measurement": "TGI", "setting": "OVCAR-5; read-out: pTGI (converted)", "result": 100, "unit": "µM"},
      {"measurement": "GI50", "setting": "ACHN; read-out: GI50", "result": 28, "unit": "µM"},
      {"measurement": "CC50", "setting": "ACHN; [4]", "result": "> 100", "unit": "µM"},
      {"measurement": "TGI", "setting": "ACHN; read-out: TGI", "result": "> 100", "unit": "µM"},
      {"measurement": "GI50", "setting": "ACHN; read-out: pGI50 (converted)", "result": 28.2, "unit": "µM"},
      {"measurement": "CC50", "setting": "ACHN; [5]", "result": 100, "unit": "µM"},
      {"measurement": "TGI", "setting": "ACHN; read-out: pTGI (converted)", "result": 100, "unit": "µM"},
      {"measurement": "Activity", "setting": "[1]", "result": 123, "unit": "%"},
      {"measurement": "GI50", "setting": "DMS-273; read-out: GI50", "result": 22, "unit": "µM"},
      {"measurement": "CC50", "setting": "DMS-273; [4]", "result": "> 100", "unit": "µM"},
      {"measurement": "TGI", "setting": "DMS-273; read-out: TGI", "result": "> 100", "unit": "µM"},
      {"measurement": "GI50", "setting": "DMS-273; read-out: pGI50 (converted)", "result": 22.4, "unit": "µM"},
      {"measurement": "CC50", "setting": "DMS-273; [5]", "result": 100, "unit": "µM"},
      {"measurement": "TGI", "setting": "DMS-273; read-out: pTGI (converted)", "result": 100, "unit": "µM"},
      {"measurement": "GI50", "setting": "St-4; read-out: GI50", "result": 33, "unit": "µM"},
      {"measurement": "CC50", "setting": "St-4; [4]", "result": "> 100", "unit": "µM"},
      {"measurement": "TGI", "setting": "St-4; read-out: TGI", "result": "> 100", "unit": "µM"},
      {"measurement": "GI50", "setting": "St-4; read-out: pGI50 (converted)", "result": 33.1, "unit": "µM"},
      {"measurement": "CC50", "setting": "St-4; [5]", "result": 100, "unit": "µM"},
      {"measurement": "TGI", "setting": "St-4; read-out: pTGI (converted)", "result": 100, "unit": "µM"},
      {"measurement": "GI50", "setting": "NCI-H23; read-out: GI50", "result": 23, "unit": "µM"},
      {"measurement": "CC50", "setting": "NCI-H23; [4]", "result": "> 100", "unit": "µM"},
      {"measurement": "TGI", "setting": "NCI-H23; read-out: TGI", "result": 69, "unit": "µM"},
      {"measurement": "GI50", "setting": "NCI-H23; read-out: pGI50 (converted)", "result": 22.9, "unit": "µM"},
      {"measurement": "CC50", "setting": "NCI-H23; [5]", "result": 100, "unit": "µM"},
      {"measurement": "TGI", "setting": "NCI-H23; read-out: pTGI (converted)", "result": 69.2, "unit": "µM"},
      {"measurement": "GI50", "setting": "MKN-45; read-out: GI50", "result": 27, "unit": "µM"},
      {"measurement": "CC50", "setting": "MKN-45; [4]", "result": "> 100", "unit": "µM"},
      {"measurement": "TGI", "setting": "MKN-45; read-out: TGI", "result": "> 100", "unit": "µM"},
      {"measurement": "GI50", "setting": "MKN-45; read-out: pGI50 (converted)", "result": 26.9, "unit": "µM"},
      {"measurement": "CC50", "setting": "MKN-45; [5]", "result": 100, "unit": "µM"},
      {"measurement": "TGI", "setting": "MKN-45; read-out: pTGI (converted)", "result": 100, "unit": "µM"},
      {"measurement": "GI50", "setting": "SF-268; read-out: GI50", "result": 74, "unit": "µM"},
      {"measurement": "CC50", "setting": "SF-268; [4]", "result": "> 100", "unit": "µM"},
      {"measurement": "TGI", "setting": "SF-268; read-out: TGI", "result": "> 100", "unit": "µM"},
      {"measurement": "GI50", "setting": "SF-268; read-out: pGI50 (converted)", "result": 74.1, "unit": "µM"},
      {"measurement": "CC50", "setting": "SF-268; [5]", "result": 100, "unit": "µM"},
      {"measurement": "TGI", "setting": "SF-268; read-out: pTGI (converted)", "result": 100, "unit": "µM"},
      {"measurement": "GI50", "setting": "[2]; read-out: GI50", "result": 25, "unit": "µM"},
      {"measurement": "CC50", "setting": "[2]; [4]", "result": "> 100", "unit": "µM"},
      {"measurement": "TGI", "setting": "[2]; read-out: TGI", "result": "> 100", "unit": "µM"},
      {"measurement": "GI50", "setting": "[2]; read-out: pGI50 (converted)", "result": 25.1, "unit": "µM"},
      {"measurement": "CC50", "setting": "[2]; [5]", "result": 100, "unit": "µM"},
      {"measurement": "TGI", "setting": "[2]; read-out: pTGI (converted)", "result": 100, "unit": "µM"},
      {"measurement": "GI50", "setting": "[3]; read-out: GI50", "result": 30, "unit": "µM"},
      {"measurement": "CC50", "setting": "[3]; [4]", "result": "> 100", "unit": "µM"},
      {"measurement": "TGI", "setting": "[3]; read-out: TGI", "result": "> 100", "unit": "µM"},
      {"measurement": "GI50", "setting": "[3]; read-out: pGI50 (converted)", "result": 30.2, "unit": "µM"},
      {"measurement": "TGI", "setting": "[3]; read-out: pTGI (converted)", "result": 100, "unit": "µM"},
      {"measurement": "GI50", "setting": "KM12; read-out: GI50", "result": 42, "unit": "µM"},
      {"measurement": "CC50", "setting": "KM12; [4]", "result": "> 100", "unit": "µM"},
      {"measurement": "TGI", "setting": "KM12; read-out: TGI", "result": "> 100", "unit": "µM"},
      {"measurement": "GI50", "setting": "KM12; read-out: pGI50 (converted)", "result": 41.7, "unit": "µM"},
      {"measurement": "CC50", "setting": "KM12; read-out: pLC50 (converted)", "result": "> 100", "unit": "µM"}
    ]}
  ]
}
